Results reported in patent publication US7335355B2, “Antimicrobial agent” (Hansa Medical AB, priority 2000, dated 2008).
Read-outs that look alike come from different tables or passages of the source.

How the values were obtained:
α-defensin 1 = molecular target: T1, α-defensin 1 (Homo sapiens, UniProt P59665); experiment: Slot-binding assay: radioiodinated DS binding to blotted α-defensin 1, competition by unlabelled polysaccharides; settings: unlabelled polysaccharide 2 mg/ml, ~100-fold excess
T1 construct: purchased Bachem, Switzerland
T1 sequence (P59665 65-94 limits assumed): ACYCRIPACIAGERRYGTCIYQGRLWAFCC

E. faecalis gelatinase [1] = molecular target: T2, E. faecalis gelatinase (Enterococcus faecalis, UniProt Q833V7); assay type: biochemical; settings: 6 mU gelatinase, 1 hour
T2 construct: The E. faecalis strain contained gelatinase and supernatants were used directly; made in house; host or cells: Enterococcus faecalis isolate from a chronic venous wound (natural producer); unpurified culture supernatant

P. aeruginosa elastase = settings: 1 hour; for Inhibition of LL-37 degradation by P. aeruginosa elastase: 12 mU elastase; for Inhibition of LL-37 degradation by P. aeruginosa elastase by sulphated saccharides: 1 μg LL-37, 12 mU elastase, 15 μl 10 mM Tris-buffer
LL-37 = molecular target: T3, LL-37 (Homo sapiens, UniProt P49913); experiment: Slot-binding assay: iodinated dermatan sulphate (DS36) binding to LL-37 on nitrocellulose, competition; settings: LL-37 0.2-5 μg on nitrocellulose
T3 sequence (P49913 134-170 limits assumed): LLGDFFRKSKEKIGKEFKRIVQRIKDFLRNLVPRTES
Protocol: LL-37 (0.2-5 μg) was applied onto nitrocellulose and incubated with iodinated dermatan sulphate (DS36). Different polysaccharides were added for competition of binding. DS36, DS18, DS13 (dermatan sulphate 36, 18, and 13), CS4 and CS6 (chondroitin sulphate 4 and 6), CS-D (chondroitin sulphate D) and CS-E (chondroitin sulphate E).
LL-37 (0.2-5 μg) was applied onto nitrocellulose and incubated with iodinated dermatan sulphate (DS36). Different cationic substances, as indicated on top of the various panels, were added for competition of binding. (a), p-1-lys; poly-L-lysine, p-1-arg; poly-L-arginine, DEAE; DEAE-dextran, PB; polybrene. (b), CH; chitosan, PEI, polyethyleneimine, PM; protamine, PMX; polymyxin B, PMXnp; polymyxin B nonapeptide.
Radioiodination of DS36 was performed according to previous protocols (F Cheng, K. Yoshida, D. Heinegard, L. Å. Fransson, Glycobiology, 2, 553 (1992)). Slot-binding assays were carried out as follows: α-defensin peptide I (Bachem, Switzerland) was blotted onto nitrocellulose membranes (Hybond, Amersham). Membranes were blocked (PBS, pH 7.4, 0.25% Tween 20, 3% bovine serum albumin) for 1 h and incubated with radiolabelled DS (˜20 μl/ml) for 1 h in the same buffer. Unlabelled polysaccharides were added for competition of binding (2 mg/ml). The membranes were washed (3×10 min) (PBS, pH 7.4, 0.25% Tween 20). Bas 2000 radioimaging system (Fuji) was used for visualization of radioactivity.
LL-37 (0.2-5 μg) was applied onto nitrocellulose and incubated with iodinated dermatan sulphate (DS36). Different polysaccharides were added for competition of binding: DS36, DS18, DS13, CS-4, CS-6, CS-D (chondroitin sulphate D) and CS-E (chondroitin sulphate E). […] Radiolabelled DS was, however, displaced by DS-36, DS18, DS13 and CS-E.
The effects of various cationic molecules on the DS-LL-37 interaction were monitored using slot-blot assays as described in Example 2. DS binding to LL-37 was blocked by poly-L-lysine, poly-L-arginine, DEAE-dextran, polybrene, chitosan and polyethyleneimine.

E. faecalis [2] = experiment: Bactericidal assay of LL-37 after incubation with P. aeruginosa elastase; assay type: cell-based, Enterococcus faecalis; settings: 0.1 μg LL-37, E. faecalis 2×10^6 cfus/ml, 2 h, 37° C.
[3] = molecular target: T4, S. pyogenes cysteine proteinase (Streptococcus pyogenes, UniProt P0C0J0)
E. faecalis gelatinase [4] = molecular target: T5, E. faecalis gelatinase (Enterococcus faecalis, UniProt Q833V7); assay type: biochemical; settings: 1 μg LL-37, 3 mU, 1 hour and 6 hours
T5 construct: The E. faecalis strain contained gelatinase and supernatants were used directly; made in house; host or cells: Enterococcus faecalis isolate from a chronic venous wound (natural producer); unpurified culture supernatant
T5 sequence (Q833V7 whole entry, looked up): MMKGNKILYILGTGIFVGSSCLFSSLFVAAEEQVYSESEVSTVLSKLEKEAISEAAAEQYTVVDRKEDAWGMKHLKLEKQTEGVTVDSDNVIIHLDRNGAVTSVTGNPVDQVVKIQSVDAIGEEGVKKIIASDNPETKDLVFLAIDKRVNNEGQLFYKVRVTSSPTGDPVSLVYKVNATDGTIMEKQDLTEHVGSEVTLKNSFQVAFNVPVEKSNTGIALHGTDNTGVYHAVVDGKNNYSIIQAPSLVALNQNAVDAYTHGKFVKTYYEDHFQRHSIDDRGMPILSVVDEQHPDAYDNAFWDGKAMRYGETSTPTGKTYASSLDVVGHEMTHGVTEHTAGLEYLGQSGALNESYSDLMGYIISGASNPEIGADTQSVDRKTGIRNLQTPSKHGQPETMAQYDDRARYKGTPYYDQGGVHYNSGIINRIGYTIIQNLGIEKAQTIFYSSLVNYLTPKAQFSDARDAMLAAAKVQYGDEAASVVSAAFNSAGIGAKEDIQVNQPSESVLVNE

P. aeruginosa = experiment: Anti-microbial assay (CFU) with α-defensin 1 with or without GAG chains; assay type: cell-based, Pseudomonas aeruginosa; settings: 4 h, 37° C.
S. pyogenes = experiment: as above; settings: 2 h, 37° C.
E. faecalis [5] = experiment: as above; settings: 2 h, 37° C.
[6] = molecular target: T4, S. pyogenes cysteine proteinase; remark: listed apart in the source

With dextran the “Competition of radiolabelled DS binding to α-defensin 1 by unlabelled polysaccharide” value (shortened to “Competition of radiolabelled DS binding”) (α-defensin 1) was “not”.

With heparin [reference compound] the “Competition of radiolabelled DS binding” value (α-defensin 1) was “displaced the radiolabelled DS”.

`CNC(=O)[C@H](Cc1c[nH]c2ccccc12)NC(=O)[C@@H](CC(=O)NO)CC(C)C` [GM6001, reference compound] was tested, and the “Inhibition of LL-37 degradation by E. faecalis gelatinase” value (E. faecalis gelatinase [1]; inhibitor 100 μM) was “Degradation was abolished” and the “Inhibition of LL-37 degradation by P. aeruginosa elastase” value (P. aeruginosa elastase; inhibitor 100 μM) was “Degradation was abolished”.

With `CC(=O)NC1C(O)OC(COS(=O)(=O)O)C(OS(=O)(=O)O)C1OC1OC(C(=O)O)=CC(O)C1OS(=O)(=O)O` [ΔUA(2S)-GalNAc(4,6S)] the “Inhibition of LL-37 degradation by P. aeruginosa elastase by sulphated saccharides” value (P. aeruginosa elastase) was “inhibited the degradation”.

“polymyxin B nonapeptide [reference compound]” was tested, and the “Effect of cationic molecules on DS binding to LL-37” value (shortened to “Effect of cationic molecules”) (LL-37) was “did not block the binding”.

`c1cnc2c(c1)ccc1cccnc12` [1,10-phenantroline, reference compound] was tested, and the “Inhibition of LL-37 degradation by E. faecalis gelatinase” value (E. faecalis gelatinase [1]; inhibitor 2 mM) was “Degradation was abolished” and the “Inhibition of LL-37 degradation by P. aeruginosa elastase” value (P. aeruginosa elastase; inhibitor 2 mM) was “Degradation was abolished”.

In the case of “LL-37: cationic antimicrobial peptide LL-37 (SEQ ID NO: 1)”, the “Bactericidal activity of LL-37 after incubation with P. aeruginosa elastase” value (E. faecalis [2]) is reported as “inactivated”, the “Degradation of LL-37 by S. pyogenes cysteine proteinase” value [3] is reported as “degradation of LL-37 by bacterial proteinases” and the “Degradation of LL-37 by E. faecalis gelatinase” value (E. faecalis gelatinase [4]) is reported as “degradation of LL-37 by bacterial proteinases”.

For “α-defensin 1: cationic antimicrobial peptide α-defensin (SEQ ID NO: 2), from Bachem”, the “α-defensin 1 concentration at which bacteria were effectively killed” value (“α-defensin 1 concentration” below) (P. aeruginosa) was at least 4 µg/mL, the “α-defensin 1 concentration” value (S. pyogenes) was at least 4 µg/mL and the “α-defensin 1 concentration” value (E. faecalis [5]) was at least 4 µg/mL.

With poly-L-arginine the “Effect of cationic molecules” value (LL-37) was “blocked”.

In the case of polybrene, the “Effect of cationic molecules” value (LL-37) is reported as “blocked”.

With chitosan the “Effect of cationic molecules” value (LL-37) was “blocked”.

With dextran sulfate the “Competition of radiolabelled DS binding” value (α-defensin 1) was “displaced the radiolabelled DS”.

In the case of poly-L-lysine, the “Effect of cationic molecules” value (LL-37) is reported as “blocked”.

polyethyleneimine was tested, and the “Effect of cationic molecules” value (LL-37) was “blocked”.

`O=S(=O)(O)OC[C@H]1O[C@@](COS(=O)(=O)O)(O[C@H]2O[C@H](COS(=O)(=O)O)[C@@H](OS(=O)(=O)O)[C@H](OS(=O)(=O)O)[C@H]2OS(=O)(=O)O)[C@@H](OS(=O)(=O)O)[C@@H]1OS(=O)(=O)O` [sucroseoctasulphate] was tested, and the “Inhibition of LL-37 degradation by P. aeruginosa elastase by sulphated saccharides” value (P. aeruginosa elastase) was “inhibited the degradation”.

protamine [reference compound] was tested, and the “Effect of cationic molecules” value (LL-37) was “Reduced levels of binding”.

In the case of DEAE-dextran, the “Effect of cationic molecules” value (LL-37) is reported as “blocked”.

In the case of `CC(C)C[C@H](NC(=O)[C@H]1O[C@@H]1C(=O)O)C(=O)NCCCCN=C(N)N` [E64], the “Effect on degradation of decorin and high molecular weight proteoglycans by S. pyogenes extracellular products” value [6] is reported as “completely blocked the effect”, the “Effect on degradation of decorin by S. pyogenes cysteine proteinase” value [6] is reported as “abolished degradation” and the “Inhibition of LL-37 degradation by S. pyogenes cysteine proteinase” value [3] is reported as “Degradation was abolished”.

For Polymyxin B [reference compound], the “Effect of cationic molecules” value (LL-37) was “did not block the binding”.
